According to patent publication US7323489B2, “Proline ester and preparation containing the same for percutaneous administration” (Toaeiyo Ltd., priority 2002, dated 2008):

What was measured:
[1] = test system: three-dimensional cultured human skin model (LSE-high, Toyobo Co., Ltd.); test: Metabolism test by use of cultured human skin; type: in vitro ADME; details: receptor phase PBS pH 7.4, 24 hours, 1.0 mass % in isopropyl myristate, 200 μL applied, 37° C.
Description: A sample of a three-dimensional cultured human skin model (LSE-high, Toyobo Co., Ltd.) was set in a vertical diffusion cell whose temperature was maintained at 37° C., and the receptor phase of the cell was filled with 7 mL isotonic phosphate buffer (PBS, pH 7.4). The cell was allowed to stand for one hour. Each of Inventive Compounds 1 to 3 and enalapril (serving as a Comparative Example) was dissolved or suspended in isopropyl myristate so as to attain a concentration of 1.0 mass %. The solution (200 μL) was applied to the skin sample, whereby the test started. When 24 hours had passed after the test started, the concentrations of proline esters or enalapril (i.e., a prodrug of enalaprilat) which remained unchanged, and the transformed product enalaprilat contained in PBS in the receptor phase were determined through HPLC. From the obtained data, concentration ratio of “proline esters or enalapril”: “enalaprilat” was calculated (presence ratio).

[2] = Stability test (storage in isopropyl myristate, HPLC peak area ratio); type: physicochemical
Description: About 5 mg of each of Inventive Compounds 1 to 5 and enalapril was put in a glass vial. Isopropyl myristate (100 μL) was added, to thereby yield a solution (or suspension). The vial was tightly sealed and stored in a 60° C. thermostatic chamber for one week. Methanol was added to the solution contained in the vial until the total volume of the solution mixture became 100 mL. The resultant solution was employed as a test solution to be subjected to an HPLC analysis. Peak area ratio (expressed by percentage) of each compound with respect to a sum of all the obtained peak areas was calculated.

[3] = in the skin and in the plasma; cited from earlier work
[4] = storage at 60° C. for 1 week, HPLC peak area ratio

Presence ratio: proline ester or enalapril (unchanged) part of concentration ratio [1] | Area ratio: Closed ring product [2, 4] | Area ratio: Enalaprilat [2, 4] | Area ratio: Proline ester compound [2, 4] | Stability on storage (in words) ([2]; 60° C., one week) | Area ratio: Enalapril [2, 4] | SMILES | Conversion of percutaneously absorbed enalapril to enalaprilat (in words) [3]
23.5 | 0.0% | 0.0% | 91.8% | – | – | C[C@H](N[C@@H](CCc1ccccc1)C(=O)O)C(=O)N1CCC[C@H]1C(=O)OCCO [Inventive Compound 1, 1-[N-[(1S)-1-Carboxy-3-phenylpropyl]-L-alanyl]-L-proline 2-hydroxyethyl ester] | –
– | 0.0% | 0.0% | 99.1% | – | – | COCCOC(=O)[C@@H]1CCCN1C(=O)[C@H](C)N[C@@H](CCc1ccccc1)C(=O)O [Inventive Compound 4, 1-[N-[(1S)-1-Carboxy-3-phenylpropyl]-L-alanyl]-L-proline 2-methoxyethyl ester] | –
30.4 | 0.0% | 0.0% | 94.4% | – | – | C[C@H](N[C@@H](CCc1ccccc1)C(=O)O)C(=O)N1CCC[C@H]1C(=O)OCCCCO [Inventive Compound 3, 1-[N-[(1S)-1-Carboxy-3-phenylpropyl)-L-alanyl]-L-proline 4-hydroxybutyl ester] | –
– | 0.0% | 0.0% | 94.2% | – | – | COCCOCCOC(=O)[C@@H]1CCCN1C(=O)[C@H](C)N[C@@H](CCc1ccccc1)C(=O)O [Inventive Compound 5, 1-[N-[(1S)-1-Carboxy-3-phenylpropyl]-L-alanyl]-L-proline 2-(2-methoxyethoxy)ethyl ester] | –
36.3 | 0.0% | 0.0% | 96.7% | – | – | C[C@H](N[C@@H](CCc1ccccc1)C(=O)O)C(=O)N1CCC[C@H]1C(=O)OCCCO [Inventive Compound 2, 1-[N-[(1S)-1-Carboxy-3-phenylpropyl]-L-alanyl]-L-proline 3-hydroxypropyl ester] | –
98.8 | 48.4% | 0.0% | – | completely degraded | 0.0% | CCOC(=O)[C@H](CCc1ccccc1)N[C@@H](C)C(=O)N1CCC[C@H]1C(=O)O [Enalapril, reference compound] | not converted to enalaprilat
